Assay results reported in patent EP0028279A1, “Phthalide-isoquinoline derivatives, their preparation and their use in medicaments” (CALAIRE CHIMIE S.A., priority 1979, dated 1981).

Experiments:
[1] = Acute toxicity (LD50), oral, mouse; details: in vivo, read-out: DL 50 (the source's name)
Source text: (§1) La toxicité a été déterminée de manière habituelle.

[2] = target: T1, histidine décarboxylase de rein de cobaye (Cavia porcellus, UniProt H0WB71); test: Kidney histidine decarboxylase activity after in vivo administration (method of Kosmicki et al.); details: guinea pigs sacrificed 5 hours after administration, reduction versus controls, read-out: Activité exprimée en % d'inhibition de l'enzyme
T1 construct: le pourcentage de réduction de l'activité de l'enzyme du rein des animaux traités; from tissue; host or cells: guinea pig kidney
T1 sequence (H0WB71 1-642): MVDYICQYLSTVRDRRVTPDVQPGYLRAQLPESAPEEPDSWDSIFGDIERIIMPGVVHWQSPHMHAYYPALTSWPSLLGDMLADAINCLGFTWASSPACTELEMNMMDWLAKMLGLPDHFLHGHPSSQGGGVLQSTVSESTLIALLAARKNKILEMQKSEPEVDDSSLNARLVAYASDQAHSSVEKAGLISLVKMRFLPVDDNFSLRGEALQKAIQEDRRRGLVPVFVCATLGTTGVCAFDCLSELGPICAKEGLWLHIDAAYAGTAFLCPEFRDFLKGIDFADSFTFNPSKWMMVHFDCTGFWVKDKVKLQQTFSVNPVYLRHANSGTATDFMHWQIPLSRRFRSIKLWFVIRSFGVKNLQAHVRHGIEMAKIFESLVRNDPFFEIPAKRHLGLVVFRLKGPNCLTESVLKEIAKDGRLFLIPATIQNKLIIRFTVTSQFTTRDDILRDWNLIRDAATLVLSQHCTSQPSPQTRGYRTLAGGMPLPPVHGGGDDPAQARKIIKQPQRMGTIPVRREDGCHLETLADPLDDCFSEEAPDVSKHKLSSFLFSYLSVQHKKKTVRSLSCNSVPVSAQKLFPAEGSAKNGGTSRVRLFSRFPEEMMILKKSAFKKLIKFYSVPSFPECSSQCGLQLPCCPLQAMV
Source text: L'activité du composé 458L a été comparée à celle de la tritoqualine qui est à la connaissance des Demandeurs, le seul produit utilisé en thérapeutique pour cette propriété. La technique de mesure de l'activité de l'histidine décarboxylase de rein de cobaye a été décrite par B. Kosmicki et al (J. Pharmacol. Paris 1974 - 5 - 3 - 331 - 342). Les cobayes ont été sacrifiés cinq heures après l'administration des substances étudiées. Il a été déterminé par rapport aux témoins le pourcentage de réduction de l'activité de l'enzyme du rein des animaux traités. Les résultats obtenus sont rapportés dans le tableau ci-dessous : […]

[3] = set-up: species or system souris; details: in vivo
Source text: as §1

Question: Which results are given for CCOc1c(N)c2c(c(OCC)c1OCC)C(C1c3c(cc(OC)c(OC)c3OC)CCN1C)OC2=O (stereo not shown) [458 L]?
Answer: LD50 [1]: ~6000 mg/kg; inhibition at 10 mg/kg [2]: 14%; inhibition at 20 mg/kg [2]: 21%; inhibition at 40 mg/kg [2]: 31%; inhibition at 60 mg/kg [2]: 41%; toxicité chronique [3]: bonne tolérance

Question: For CCOc1c(N)c2c(c(OCC)c1OCC)C(C1c3c(cc4c(c3OC)OCO4)CCN1C)OC2=O (stereo not shown) [Tritoqualine, tritoqualine, reference compound], which inhibition at 10 mg/kg [2] is on record?
Answer: 10%

Question: And the inhibition at 20 mg/kg [2]?
Answer: 20%

Question: And the inhibition at 40 mg/kg [2]?
Answer: 20%

Question: And the inhibition at 60 mg/kg [2]?
Answer: 22%
